# Marks after values point to notes of the source that are not given here.
# Assays:
# [1] = Nanoparticle size by dynamic light scattering; assay type: physicochemical
# Method: The volume and size distribution of the nanoparticles was determined by dynamic light scattering at 633 nm (Zetasizer Nano ZS, Malvern Instruments Limited, Malvern, Worcestershire, UK). Nanoconjugate size was also measured using purified samples, diluted to 0.2 mg/mL and contrasted by evaporation of 1 nm platinum layer in carbon-coated grids, before being visualized in a Hitachi H-7000 transmission electron microscope (TEM), as described33.
# [2] = tested on: CXCR4^+ HeLa human cervical carcinoma cell line; test: Internalization in CXCR4+ HeLa cells (flow cytometry, AMD3100 competition); assay type: cell-based; conditions: 1 hour exposure, 1 μM
# Method: To assess specificity for CXCR4 receptor mediated internalization, competition studies incubating CXCR4^+ HeLa cells with the CXCR4 antagonist AMD3100 (octahydrochloride hydrate, Sigma-Aldrich) were performed in a 1:10 (Protein:antagonist) molar ratio for 1 h before exposure to the nanoconjugate, as previously described for the T22-GFP-H6.
# Nuclei were labeled with Hoechst 33342 (Life Technologies) and plasma membranes CellMask™ Deep Red (Life Technologies).
# [3] = tested on: CXCR4^+ SW1417 CRC metastases; test: Prevention of metastasis protocol, SC+ORT CXCR4+ SW1417 CRC model; assay type: in vivo, NOD/SCID mice
# Method: Thus, a SC+ORT model, was produced: when SC tumors reached a volume of 700 mm3, mice were sacrificed by cervical dislocation and tumours were excised, discarding the necrotic areas. Three hundred mg of viable tumour tissue was then cut into pieces and disaggregated in a mix of 0.05% trypsin (Invitrogen) and 100 mg/ml DNase (Sigma-Aldrich). The mix was pipetted 30 times, using a 10 ml pipette, and incubated for 10 minutes at 37° C. with shaking. It was then re-pipetted 30 times, using 10 ml, 3 ml and 1 ml pipettes, and re-incubated for 5 minutes at 37° C. with shaking. This re-pipetting step was then repeated. The obtained SW1417 single-cell suspension was filtered through a cell strainer and centrifuged at 1,000 g for 10 minutes before counting the cells. Then 2×10^6 cells, […] resuspended in 50 μl of media, were microinjected in the cecum of each mouse, following the method described above.
# The SC+ORT metastatic CRC model developed in NOD/SCID mice was used to evaluate the capacity of the nanoconjugate for metastasis prevention.
# (§1) At necropsy, the number and size of visible metastases in the organs where dissemination is expected in colorectal cancer (lymph nodes, liver, lung and peritoneum) were recorded for each mouse in all compared groups. Also the number of metastatic foci that emitted bioluminiscence (derived from the SW1417-luci CRC cells) were counted ex vivo in the target organs for metastasis, using the IVIS® 200-Spectrum (Perkin-Elmer). Samples for histopathological and immunohistochemical analyses were collected and processed. Two independent observers analyzed H&E stained samples to count the number and measure the size of all observed metastatic foci in three (metastasis prevention experiment) or six (regression of metastasis experiment) sections of each organ in each mouse. The images were taken and the measurements were performed with an Olympus microscope with the CellD Olympus software (v3.3). […] The obtained results were used to study a possible correlation between CXCR4^+ CCF and antimetastatic effect at the different sites.
# (§2) In order to analyze differences between control and experimental groups of affected mice in metastatic rates at the different organs, Fisher's exact test was used. The Mann-Whitney test was used to compare number and size of metastatic foci in the affected organs among groups. All quantitative values were expressed as mean±SE and the statistical tests were performed using SPSS version 11.0 (IBM, New York, USA). Differences among groups was considered significant at a p<0.05.
# [4] = tested on: CXCR4^+ SW1417 CRC metastases; test: Regression of established metastasis protocol, orthotopic CXCR4+ SW1417 CRC model; assay type: in vivo, Swiss nude mice
# Method: Swiss nude mice were anesthetized with ketamine and xylazine, exteriorizing their cecum by a laparotomy. 2×106 CXCR4^+ SW1417-luci CRC cells (expressing luciferase, to allow ex vivo bioluminescent identification of metastatic foci in affected organs at the end of therapy) were suspended in […] of modified Eagle's medium, and loaded into a sterile micropipette. The cell suspension was slowly injected, under a binocular lens, with an approximate 30° angle and its tip introduced 5 mm into the cecal wall. Afterward, a slight pressure was applied with a cotton stick at approximately 2 mm from the injection point in the direction of the pipette axis. The pipette was pulled out and the area around the injection cleaned with 3% iodine. After injection, the gut was returned to the abdominal cavity and closed with surgical staples.
# The orthotopic and metastatic CRC model developed in Swiss nude mice was employed to perform experiments of metastasis regression. […] The experiment was finished when the first animal of the buffer-treated-group had to be euthanized. See below the studied parameters to evaluate the antimetastatic effect.
# as §1, §2
# [5] = Biodistribution and toxicity in normal organs, bone marrow and circulating blood cells; assay type: in vivo, mouse
# Method: At necropsy, bone marrow was extracted and registered ex vivo in the IVIS® 200-Spectrum equipment. Mouse blood was collected by punction in the maxillary plexus. The erythrocytes, leucocytes and platelets were isolated by the Ficoll density gradient method using the standard protocol. Further, pellets were obtained by centrifugation of the isolated cell extracts at 600 g, 10 min and then recorded to measure fluorescence using IVIS® 200-Spectrum.
# In addition, two independent observers evaluated the possible histopathological alterations observed in H&E stained non-tumor tissue samples, searching for signs of toxicity.
# [6] = tested on: subcutaneous CXCR4^+ SW1417 CRC tumor; test: Tumor uptake and tumor cell internalization in subcutaneous CXCR4+ SW1417 CRC model; design: tumor uptake measured by fluorescence emission: dose or concentration left out as unconfirmed
# Method: SC model was used to assess tumor uptake and nanoconjugate internalization and in vivo competition studies using co-administration of the CXCR4 antagonist AMD3100.
# Two hours, 5 h and 24 h after the administration, the mouse was euthanized to resect the tumor and register ex vivo the intensity of the green fluorescence emitted by the nanoconjugated that biodistributed to tumor tissue using the IVIS® 200-Spectrum (Perkin Elmer, MA, USA). Following, tumor tissue samples were taken, processed and performed immunohistochemistry (IHC) to determine the presence or absence of the corresponding nanoconjugate into cytosol of tumor cells using an anti-GFP antibody (1:300; Santa-Cruz Biotechnology, CA, USA). […] Apoptosis was assessed determining nuclear condensation with Hoechst staining of tumor tissue sections and counting the number of condensed or defragmented nuclei in five high-power magnification fields in different sections for each tumor using the Olympus DP73 digital camera and the CellD Imaging 3.3 programme (Olympus, Tokyo, Japan).
# [7] = Prevention protocol, 3 histology sections, mean + SE
# [8] = versus free oligo-FdU mice, histology, end of experiment
substance,measurement,setting,value
T22-GFP-H6-FdU: nanoconjugate of T22-GFP-H6 protein nanoparticle covalently bound via maleimide linker to thiol-functionalized pentameric floxuridine oligonucleotide (oligo-FdU),size determined by dynamic light scattering,"[1]; Example 2, unit not given",14.6+0.14
same,size (DLS),[1]; Example 3,14.66+0.14 nm
same,internalization in HeLa cells,[2],CXCR4-dependent nanoconjugate internalization
same,"LN foci, mean foci number per mouse","[3]; Prevention protocol, 20 μg (or equimolecular) q3d x12 i.v., 3 histology sections, mean + SE",2.0 ± 0.4 ^a
same,"Liver foci, mean foci number per mouse",[3]; [7],"0.2 ± 0.1 ^b,c"
same,"Lung foci, mean foci number per mouse",[3]; [7],"1.3 ± 0.9 ^d,e"
same,"Peritoneal foci, mean foci number per mouse",[3]; [7],"0.4 ± 0.3 ^f,g"
same,reduction in the size of peritoneal foci,[3]; compared to free oligo-FdU,2.4 fold
same,Metastasis Liver [%],[3]; end of prevention experiment,[17]^a %
same,"Metastasis Liver, affected/total mice",[3]; end of prevention experiment,2/12
same,Metastasis Lung [%],[3]; end of prevention experiment,"[17]^b,c %"
same,"Metastasis Lung, affected/total mice",[3]; end of prevention experiment,2/12
same,Metastasis Lymph nodes [%],[3]; end of prevention experiment,[75] %
same,"Metastasis Lymph nodes, affected/total mice",[3]; end of prevention experiment,9/12
same,Metastasis Peritoneal [%],[3]; end of prevention experiment,[17]^d %
same,"Metastasis Peritoneal, affected/total mice",[3]; end of prevention experiment,2/12
same,metastasis development in liver and lung by ex vivo luminescence,[3]; end of prevention experiment,blocked metastasis development
same,"remaining CXCR4^+ CCF in liver, lung and peritoneal metastatic tissue (anti-CXCR4 IHC)",[3]; end of prevention experiment,higher reduction
same,prevention of LN metastases,"[3]; histology, end of experiment",did not prevent
same,"Metastasis Size, Liver",[3]; mean foci size,8.7 μm^2 × 10^−3
same,"Metastasis Size, Lung",[3]; mean foci size,15.1 μm^2 × 10^−3
same,"Metastasis Size, Lymph nodes",[3]; mean foci size,79.3 μm^2 × 10^−3
same,"Metastasis Size, Peritoneal",[3]; mean foci size,126.6 μm^2 × 10^−3
same,Primary tumor Positive/#Mice,[3]; mice bearing a primary tumor out of total mice per group,12/12
same,Primary tumor [%],[3]; percent of mice bearing a primary tumor,[100] %
same,primary tumor growth by in vivo bioluminescence emission,"[3]; prevention experiment, compared to buffer-treated mice",no significant inhibition
same,reduction in the total number of metastases in liver or lung,[3]; [8],3.1-3.7 times
same,reduction in the total number of metastases in the peritoneum,[3]; [8],10.3 fold
same,"LN foci, mean foci number per mouse","[4]; Regression protocol, 20 μg (or equimolecular) q3d x10 i.v., 6 histology sections, mean + SE","0.4 ± 0.1 ^h,i"
same,"Lung foci, mean foci number per mouse","[4]; Regression protocol, 6 histology sections, mean + SE","0.7 ± 0.4 ^k,l,m"
same,regression of established lung metastasis,[4]; compared to free oligo-FdU,more potent than free oligo-FdU
same,primary tumor growth by in vivo bioluminescence emission,"[4]; regression experiment, compared to buffer treated animals",significantly inhibited tumor growth
same,"fluorescence emission in erythrocytes, leucocytes or platelets",[5]; 5 h after doses in the 10-100 μg range,Lack of fluorescence emission
same,fluorescence emission in spleen or bone marrow,"[5]; 5 h after single injections, 10-100 μg range",Lack of fluorescence emission
same,level of DSBs in liver (anti-gH2AX IHC),[5]; 5 h after treatment,undetectable
same,apoptosis or histological alteration in bone marrow or liver,[5]; 24 h post-administration,not detected
same,mouse body weight,[5]; regression and prevention of metastases experiments,lack of mouse body weight loss
same,tumor uptake measured by fluorescence emission,"[6]; 5 h after injection, i.v.",selective tumor uptake
same,internalization into CXCR4^+ tumor cell cytosol by anti-GFP immunohistochemistry,[6]; single i.v. dose,internalized

# From patent US12202866B2, “Therapeutic nanoconjugates and uses thereof” (UNIVERSITAT AUTÒNOMA DE BARCELONA (UAB), priority 2017, dated 2025)
